Values of other authors, collected in US6635277B2, “Composition for pulsatile delivery of diltiazem and process of manufacture” (Wockhardt Limited, priority 2000, dated 2003).

Details: in 0.1N HCl

- Fraction ionized: 10%
SMILES: CCCCCCCCCCCCOS(=O)(=O)[O-].[Na+] [sodium lauryl sulfate]
